{
  "source": "patent EP0738513A1",
  "about": "“Method for using ergoline compounds to effect physiological and pathological functions at the 5-HT7 receptor” (ELI LILLY AND COMPANY, priority 1995, dated 1996)",
  "key": {"human 5-HT7 receptor": {"target": "human 5-HT7 receptor (Homo sapiens, UniProt P34969)", "sequence (P34969 whole entry)": "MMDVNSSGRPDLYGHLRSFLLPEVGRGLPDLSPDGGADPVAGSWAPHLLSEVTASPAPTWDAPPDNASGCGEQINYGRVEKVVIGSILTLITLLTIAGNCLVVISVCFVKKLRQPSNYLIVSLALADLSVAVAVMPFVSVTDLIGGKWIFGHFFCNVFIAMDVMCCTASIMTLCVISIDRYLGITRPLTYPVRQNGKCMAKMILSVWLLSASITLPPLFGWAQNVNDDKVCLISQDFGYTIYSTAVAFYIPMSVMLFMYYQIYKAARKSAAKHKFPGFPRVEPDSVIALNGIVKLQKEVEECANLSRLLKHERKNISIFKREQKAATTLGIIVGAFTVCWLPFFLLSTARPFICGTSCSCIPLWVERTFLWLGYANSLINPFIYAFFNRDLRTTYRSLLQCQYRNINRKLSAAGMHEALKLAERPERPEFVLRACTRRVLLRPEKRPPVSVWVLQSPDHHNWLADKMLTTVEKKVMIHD", "assay": "receptor binding studies at the human 5-HT7 receptor", "from_the_text": "The general chemical structure for three particularly useful compounds of the invention (compounds III - V) are shown below: [drawing 3]"}, "[1]": {"system": "5-HT7 receptor in the dog coronary artery", "assay": "antagonism of 5-HT-induced relaxation in endothelium-denuded canine coronary artery rings precontracted with PGF2α", "format": "cell-based, mongrel dogs", "details": "for pA2 (-log KB): antagonist dissociation constant against 5-HT-induced relaxation, Schild analysis for compounds II and IV; for relaxant activity as agonist in canine coronary artery: agonist alone", "protocol": "(§1) Hearts were obtained from mongrel dogs anesthetized with sodium pentobarbital (30mg/kg, i.v.) and placed in oxygenated modified Krebs' solution of the following composition (millimolar): NaCl, 118; KCl, 4.6; CaCl2, 1.6; KH2PO4, 1.2; MgSO4 1.2, glucose, 10; NaHCO3 24.8 (pH 7.4). The left anterior descending and circumflex coronary arteries were dissected from the hearts, cleaned of fat and adhering tissue and cut into rings (approximately 2-3mm outer diameter and 4-5mm in length). The intimal surface of the rings was gently rubbed with a pair of forceps to remove the endothelium. Tissues were then mounted between two stainless steel hooks and placed in 10ml organ chambers constantly exposed to oxygenated modified Krebs' solution (95% O2/5% CO2; pH 7.4; 37°C). Tissues were equilibrated for 1 hour under an initial optimal passive force of 4g determined previously from length-tension experiments. The buffer was replaced every 15 minutes during equilibration. Isometric force was measured with Statham UC3 force transducers connected to a Beckman dynograph (R611). After lhr equilibration, tissues were depolarized twice with 50mM KCl for 30min with a 20min washing period between. The integrity of the endothelium was examined with acetylcholine (1µM), bradykinin (100nM), or the ionophore A23187 (1µM). Rings that relaxed to these agents were not used in this study.\n(§2) Tissues prepared as described in Example 1 were precontracted with PGF2α (10µM) which produced a tonic contraction that remained at or above 92.8±2.1% (n=14) of the original maximum force throughout the experiment. Cumulative concentration-response curves to 5-HT were generated in tissues incubated with either vehicle or antagonist for 1hr. In some experiments contraction was measured in tissues under basal tone upcn the cumulative addition of 5-HT. These tissues were treated with prazosin (1µM) to block any potential α adrenoceptor activation and in the absence or presence of antagonist.\n(§3) All results are expressed as mean ± S.E. where \"n\" represents the number of rings examined. No more than two rings were used from each animal for each compound studied. The relaxation data is expressed as percent relaxation of the contraction produced by PGF2α . The contraction data is expressed as percent of a maximal KCl (50mM) contraction. The EC50 was the concentration of the agonist producing half-maximal response and was determined by least squares linear regression analysis of the linear portion of the agonist concentration-response curve and expressed as -log EC50 (pEC50).\nApparent antagonist dissociation constants (KB) were determined for each antagonist according to the following equation: KB =((B))/((dose ratio -1)) [formula] where (B) is the concentration of the antagonist and dose ratio is the EC50 of the agonist in the presence of the antagonist divided by the EC50 of the agonist in vehicle treated tissues. […] Significant differences between vehicle and antagonist treated tissues were determined with Student's t-test. The alpha value was set a priori at 0.05.\nThe data was also analyzed in accord with the procedure of Arunlakshana and Schild (1959). The dose ratio was determined at various concentrations of antagonist compound II or compound IV. If blockade is competitive under equilibrium conditions a plot of the logarithm (dose ratio - 1) against the negative logarithm of the molar concentration of antagonist should yield a straight line whose slope is not different from unity and whose intercept on the abscissa is the pA2, which is generally considered to be equivalent to -log KB."}, "[2]": {"assay": "bioavailability after oral administration in rats", "format": "in vivo", "details": "comparative statement"}, "[3]": {"system": "endothelium denuded canine coronary artery", "assay": "agonist-induced contraction in endothelium-denuded canine coronary artery under basal tone", "format": "cell-based, mongrel dogs", "details": "for contractile response as agonist: no antagonist", "protocol": "as §1, §2, §3"}, "5-HT7 receptor": {"target": "5-HT7 receptor (Rattus norvegicus, UniProt P32305)", "sequence (P32305 whole entry)": "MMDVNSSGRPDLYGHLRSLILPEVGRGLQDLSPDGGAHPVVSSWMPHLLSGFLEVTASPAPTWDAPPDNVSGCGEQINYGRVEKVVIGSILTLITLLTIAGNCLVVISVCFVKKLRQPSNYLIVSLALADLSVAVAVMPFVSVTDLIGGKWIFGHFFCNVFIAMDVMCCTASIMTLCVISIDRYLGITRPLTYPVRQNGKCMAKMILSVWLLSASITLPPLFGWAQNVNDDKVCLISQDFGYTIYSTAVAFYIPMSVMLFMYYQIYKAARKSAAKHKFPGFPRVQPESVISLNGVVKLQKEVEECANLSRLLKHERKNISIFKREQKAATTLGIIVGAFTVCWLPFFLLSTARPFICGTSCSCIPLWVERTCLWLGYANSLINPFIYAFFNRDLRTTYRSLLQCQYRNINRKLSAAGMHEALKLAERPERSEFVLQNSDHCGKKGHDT", "details": "receptor expressed in mammalian cells; Shen at 18200; cited from earlier work"}, "[4]": {"details": "rings precontracted with PGF2α (10µM)"}, "[5]": {"details": "antagonist 1µM, vessels under basal tone"}, "[6]": {"details": "antagonist 0.3-10µM, rings precontracted with PGF2α (10µM)"}},
  "note": "Where two headings read alike, the source gives them in different places.",
  "data": [
    {"molecule": "CC(C)n1cc2c3c(cccc31)C1CC(C(=O)NC3CCCCC3)CN(C)C1C2", "note": "(stereo not shown) [COMPOUND III]", "values": [
      {"measurement": "Kd", "setting": "human 5-HT7 receptor; read-out: -log KD (converted)", "result": 25.1, "unit": "nM"},
      {"measurement": "Kd", "setting": "human 5-HT7 receptor; read-out: KD", "result": "27.1 ± 1.5", "unit": "nM"},
      {"measurement": "effect on 5-HT-induced relaxation", "setting": "[1]; antagonist 1µM", "result": "blocked 5-HT-induced relaxation"},
      {"measurement": "pA2 (-log KB)", "setting": "[1]; [4]", "result": 6.7},
      {"measurement": "bioavailability", "setting": "[2]", "result": "greater bioavailability than the ester compounds II and V"}
    ]},
    {"molecule": "COc1ccc2[nH]cc(CCN)c2c1", "note": "[5-MeOT, 5-methoxytryptamine]", "values": [
      {"measurement": "contractile response as agonist", "setting": "[3]; vessels under basal tone", "result": "biphasic contractile response"}
    ]},
    {"molecule": "CC(C)n1cc2c3c(cccc31)C1CC(C(=O)NC3CCCC3O)CN(C)C1C2", "note": "(stereo not shown) [COMPOUND IV]", "values": [
      {"measurement": "Kd", "setting": "human 5-HT7 receptor; read-out: -log KD (converted)", "result": 12.6, "unit": "nM"},
      {"measurement": "Kd", "setting": "human 5-HT7 receptor; read-out: KD", "result": "13.3 ± 1.2", "unit": "nM"},
      {"measurement": "effect on 5-HT-induced relaxation", "setting": "[1]; antagonist 10-100nM", "result": "blocked 5-HT-induced relaxation"},
      {"measurement": "pA2 (-log KB)", "setting": "[1]; [4]", "result": 8.3},
      {"measurement": "effect on sumatriptan-induced contraction", "setting": "[3]; antagonist 1µM, basal tone", "result": "did not significantly affect"},
      {"measurement": "effect on contractile response produced by 5-HT and 5-MeOT", "setting": "[3]; [5]", "result": "not affecting"},
      {"measurement": "effect on relaxant phase of the biphasic response to 5-HT and 5-MeOT", "setting": "[3]; [5]", "result": "significantly attenuated"},
      {"measurement": "bioavailability", "setting": "[2]", "result": "greater bioavailability than the ester compounds II and V"}
    ]},
    {"molecule": "NCCc1c[nH]c2ccc(O)cc12", "note": "[5-HT, 5-hydroxytryptamine]", "values": [
      {"measurement": "contractile response as agonist", "setting": "[3]; vessels under basal tone", "result": "biphasic contractile response"}
    ]},
    {"molecule": "CN(C)CCC=C1c2ccccc2CCc2ccccc21", "note": "[amitriptyline]", "values": [
      {"measurement": "affinity of the 5-HT7 receptor to the drug", "setting": "5-HT7 receptor", "result": "high affinity"}
    ]},
    {"molecule": "CC(O)C(C)OC(=O)C1CC2c3cccc4c3c(cn4C(C)C)CC2N(C)C1", "note": "(stereo not shown) [COMPOUND II]", "values": [
      {"measurement": "Kd", "setting": "human 5-HT7 receptor; read-out: -log KD (converted)", "result": 631, "unit": "nM"},
      {"measurement": "Kd", "setting": "human 5-HT7 receptor; read-out: KD", "result": 609, "unit": "nM"},
      {"measurement": "effect on concentration-response curve to 5-HT (relaxation)", "setting": "[1]; [6]", "result": "shifted the concentration-response curve to 5-HT significantly to the right"},
      {"measurement": "effect on maximum relaxant response to 5-HT", "setting": "[1]; [6]", "result": "did not alter"},
      {"measurement": "pA2 (-log KB)", "setting": "[1]; [4]", "result": 6.5}
    ]},
    {"molecule": "CNS(=O)(=O)Cc1ccc2[nH]cc(CCN(C)C)c2c1", "note": "[sumatriptan]", "values": [
      {"measurement": "relaxant activity as agonist in canine coronary artery", "setting": "[1]", "result": "lacking relaxant activity"}
    ]},
    {"molecule": "NCCc1c[nH]c2ccc(C(N)=O)cc12", "note": "[5-CT, 5-carboxamidotryptamine]", "values": [
      {"measurement": "relaxant activity as agonist in canine coronary artery", "setting": "[1]", "result": "potent relaxant agonist"},
      {"measurement": "contractile response as agonist in the presence of compound IV", "setting": "[3]; basal tone, compound IV (1µm) present to block relaxation", "result": "concentration-dependently contracted"},
      {"measurement": "contractile response as agonist", "setting": "[3]; vessels under basal tone", "result": "did not significantly contract"}
    ]}
  ]
}
